In doi:10.1101/679977v1 (bioRxiv, 2019):
Square brackets hold non-standard residues; d marks the D form. Ends that are not written are not given here. Peptide text beside a SMILES is read from it.

Assays:
E. coli = assay: Geometric mean of MICs, selectivity and targeting indices; assay type: cell-based; settings: for TI Beneficial strains (targeting index): GM(E. coli)/GM(beneficial strains); for TI Beneficial strains (targeting index) / TI Pathogenic strains (targeting index): smaller = greater specificity; for TI Pathogenic strains (targeting index): GM(E. coli)/GM(other pathogenic strains); for TI All (TIall, targeting index): all strains, smaller = greater specificity for E. coli; for GM E. coli: geometric mean of MICs against the 6 E. coli strains, >128 counted as 256 μM; for SI E. coli (selectivity index): MHC/GM (E. coli), MHC >128 counted as 256 μM, larger = greater cell selectivity
Beneficial strains = assay: Geometric mean of MICs; assay type: cell-based; settings: geometric mean of MICs against beneficial strains; >128 counted as 256 μM
E. coli ATCC25922 = assay: Salt, serum, acid and alkaline sensitivity; assay type: cell-based; settings: for MIC, Control: absence of physiological salts, serum, acid and alkaline; for MIC, FeCl3: in presence of 4μM FeCl3 (final); for MIC, MgCl2: in presence of 1 mM MgCl2; for MIC, KCl: in presence of 4.5 mM KCl (final); for MIC, NaCl: in presence of 150 mM NaCl (final); for MIC, PH=2: peptide incubated at pH=2 for 4 h prior to MIC determination; for MIC, PH=4: peptide incubated at pH=4 for 4 h prior to MIC determination; for MIC, PH=10: peptide incubated at pH=10 for 4 h prior to MIC determination; for MIC, PH=12: peptide incubated at pH=12 for 4 h prior to MIC determination
HEK293T cells = assay: Cytotoxicity MTT assay; assay type: cell-based, human; settings: 24 h, 37°C, 128 μM peptide, three independent assays
IPEC-J2 cells = assay: Cytotoxicity MTT assay; assay type: cell-based, porcine; settings: 24 h, 37°C, 128 μM peptide, three independent assays
E. coli 25922 = assay: Outer membrane permeability; assay type: cell-based; settings: 2 μM peptide, relative to 10 μg/mL polymyxin B, 5 mM HEPES pH 7.4

CC[C@H](C)[C@H](NC(=O)CNC(=O)[C@H]1CCCN1C(=O)[C@H](CCCCN)NC(=O)[C@H](Cc1c[nH]c2ccccc12)NC(=O)[C@@H](NC(=O)[C@H](CCCCN)NC(=O)[C@H](CCCCN)NC(=O)[C@H](Cc1c[nH]c2ccccc12)NC(=O)[C@@H](NC(=O)[C@H](CCCCN)NC(=O)[C@H](CCCCN)NC(=O)[C@@H](N)Cc1c[nH]c2ccccc12)[C@@H](C)CC)[C@@H](C)CC)C(=O)N[C@@H](CCCCN)C(=O)N[C@@H](CCCCN)C(=O)N[C@@H](Cc1c[nH]c2ccccc12)C(=O)N[C@H](C(=O)N[C@@H](CCCCN)C(=O)N[C@@H](CCCCN)C(=O)N[C@@H](Cc1c[nH]c2ccccc12)C(=O)N[C@H](C(=O)N[C@@H](CCCCN)C(=O)O)[C@@H](C)CC)[C@@H](C)CC [Peptide 4] (H-WKKIWKKIWK[dP]GIKKWIKKWIK-OH; N-terminus and C-terminus assumed) was tested, and the “TI Beneficial strains (targeting index)” value (E. coli) was 0.022, the “TI Pathogenic strains (targeting index)” value (E. coli) was 0.445 and the “TI All (TIall, targeting index)” value (E. coli) was 0.233. For the same compound, the “GM E. coli” value (E. coli) was 1.122 µM, the “GM Beneficial strains” value (Beneficial strains) was 50.797 µM and the “MIC, Control” value (E. coli ATCC25922) was 2 µM. For the same compound, the “MIC, FeCl3” value (E. coli ATCC25922) was 2 µM, the “MIC, MgCl2” value (E. coli ATCC25922) was 2 µM and the “MIC, KCl” value (E. coli ATCC25922) was 2 µM. For the same compound, the “MIC, NaCl” value (E. coli ATCC25922) was 2 µM, the “MIC, PH=2” value (E. coli ATCC25922) was 2 µM and the “MIC, PH=4” value (E. coli ATCC25922) was 2 µM. For the same compound, the “MIC, PH=10” value (E. coli ATCC25922) was 2 µM, the “MIC, PH=12” value (E. coli ATCC25922) was 2 µM and the cells killed (HEK293T cells) was “approximately 99%”. For the same compound, the cells killed (IPEC-J2 cells) was “approximately 99%”.

For CC[C@H](C)[C@H](NC(=O)CNC(=O)[C@H]1CCCN1C(=O)[C@H](CCCCN)NC(=O)[C@H](Cc1c[nH]c2ccccc12)NC(=O)[C@@H](NC(=O)[C@H](CCCCN)NC(=O)[C@@H](NC(=O)[C@@H](N)Cc1c[nH]c2ccccc12)[C@@H](C)CC)[C@@H](C)CC)C(=O)N[C@@H](CCCCN)C(=O)N[C@@H](CCCCN)C(=O)N[C@@H](Cc1c[nH]c2ccccc12)C(=O)N[C@@H](CCCCN)C(=O)N[C@@H](CCCCN)C(=O)O [Peptide 9] (H-WIKIWK[dP]GIKKWKK-OH; N-terminus and C-terminus assumed), the “TI Beneficial strains (targeting index)” value (E. coli) was 0.111, the “TI Pathogenic strains (targeting index)” value (E. coli) was 0.088 and the “SI E. coli (selectivity index)” value (E. coli) was 14.255. For the same compound, the “TI All (TIall, targeting index)” value (E. coli) was 0.100, the “GM E. coli” value (E. coli) was 17.959 µM and the “GM Beneficial strains” value (Beneficial strains) was 161.270 µM. The “MIC, Control” value (E. coli ATCC25922) was 16 µM, the “MIC, FeCl3” value (E. coli ATCC25922) was 16 µM and the “MIC, MgCl2” value (E. coli ATCC25922) was 64 µM. For the same compound, the “MIC, KCl” value (E. coli ATCC25922) was 32 µM, the “MIC, NaCl” value (E. coli ATCC25922) was greater than 64 µM and the “MIC, PH=2” value (E. coli ATCC25922) was 32 µM. For the same compound, the “MIC, PH=4” value (E. coli ATCC25922) was 32 µM, the “MIC, PH=10” value (E. coli ATCC25922) was 16 µM and the “MIC, PH=12” value (E. coli ATCC25922) was 16 µM.

For CC[C@H](C)[C@H](NC(=O)CNC(=O)[C@H]1CCCN1C(=O)[C@H](CCCCN)NC(=O)[C@H](Cc1c[nH]c2ccccc12)NC(=O)[C@@H](NC(=O)[C@H](CCCCN)NC(=O)[C@H](CCCCN)NC(=O)[C@@H](N)Cc1c[nH]c2ccccc12)[C@@H](C)CC)C(=O)N[C@@H](CCCCN)C(=O)N[C@@H](CCCCN)C(=O)N[C@@H](Cc1c[nH]c2ccccc12)C(=O)N[C@H](C(=O)N[C@@H](CCCCN)C(=O)NCC(=O)NCC(=O)NCC(=O)N[C@@H](CCC(N)=O)C(=O)N[C@@H](CCCCN)C(=O)N[C@@H](CCCNC(=N)N)C(=O)N1CCC[C@H]1C(=O)N[C@@H](CCCNC(=N)N)C(=O)N[C@H](C(=O)N[C@@H](CCCNC(=N)N)C(=O)N[C@@H](CC(C)C)C(=O)N[C@@H](CO)C(=O)N[C@@H](C)C(=O)O)C(C)C)[C@@H](C)CC [Peptide 11] (H-WKKIWK[dP]GIKKWIKGGGQKRPRVRLSA-OH; N-terminus and C-terminus assumed), the “TI Pathogenic strains (targeting index)” value (E. coli) was 0.020, the “SI E. coli (selectivity index)” value (E. coli) was 80.630 and the “TI All (TIall, targeting index)” value (E. coli) was 0.028. The “TIall lower than that of melittin” value (E. coli; from TIall) was 31 times, the “increase of specificity for E. coli relative to parental peptide 2” value (E. coli; from TIall) was 2.4 times and the “GM E. coli” value (E. coli) was 3.175 µM. For the same compound, the “GM Beneficial strains” value (Beneficial strains) was 256.000 µM, the “MIC, Control” value (E. coli ATCC25922) was 2 µM and the “MIC, FeCl3” value (E. coli ATCC25922) was 4 µM. For the same compound, the “MIC, MgCl2” value (E. coli ATCC25922) was 16 µM, the “MIC, KCl” value (E. coli ATCC25922) was 2 µM and the “MIC, NaCl” value (E. coli ATCC25922) was 32 µM. The “MIC, PH=2” value (E. coli ATCC25922) was 4 µM, the “MIC, PH=4” value (E. coli ATCC25922) was 4 µM and the “MIC, PH=10” value (E. coli ATCC25922) was 2 µM. The “MIC, PH=12” value (E. coli ATCC25922) was 4 µM and the “outer membrane permeability (NPN uptake)” value (E. coli 25922) was 61%.

CC[C@H](C)[C@H](NC(=O)CNC(=O)[C@H]1CCCN1C(=O)[C@H](CCCCN)NC(=O)[C@H](Cc1c[nH]c2ccccc12)NC(=O)[C@@H](NC(=O)[C@H](CCCCN)NC(=O)[C@H](CCCCN)NC(=O)[C@H](Cc1c[nH]c2ccccc12)NC(=O)CNC(=O)CNC(=O)CNC(=O)[C@H](C)NC(=O)[C@H](CO)NC(=O)[C@H](CC(C)C)NC(=O)[C@H](CCCNC(=N)N)NC(=O)[C@@H](NC(=O)[C@H](CCCNC(=N)N)NC(=O)[C@@H]1CCCN1C(=O)[C@H](CCCNC(=N)N)NC(=O)[C@H](CCCCN)NC(=O)[C@@H](N)CCC(N)=O)C(C)C)[C@@H](C)CC)C(=O)N[C@@H](CCCCN)C(=O)N[C@@H](CCCCN)C(=O)N[C@@H](Cc1c[nH]c2ccccc12)C(=O)N[C@H](C(=O)N[C@@H](CCCCN)C(=O)O)[C@@H](C)CC [Peptide 12] (H-QKRPRVRLSAGGGWKKIWK[dP]GIKKWIK-OH; N-terminus and C-terminus assumed) was tested, and the “TI Beneficial strains (targeting index)” value (E. coli) was 0.031, the “TI Pathogenic strains (targeting index)” value (E. coli) was 0.039 and the “SI E. coli (selectivity index)” value (E. coli) was 32.000. For the same compound, the “TI All (TIall, targeting index)” value (E. coli) was 0.035, the “GM E. coli” value (E. coli) was 8.000 µM and the “GM Beneficial strains” value (Beneficial strains) was 256.000 µM. The “MIC, Control” value (E. coli ATCC25922) was 8 µM, the “MIC, FeCl3” value (E. coli ATCC25922) was 8 µM and the “MIC, MgCl2” value (E. coli ATCC25922) was 32 µM. The “MIC, KCl” value (E. coli ATCC25922) was 8 µM, the “MIC, NaCl” value (E. coli ATCC25922) was greater than 64 µM and the “MIC, PH=2” value (E. coli ATCC25922) was 16 µM. The “MIC, PH=4” value (E. coli ATCC25922) was 8 µM, the “MIC, PH=10” value (E. coli ATCC25922) was 16 µM and the “MIC, PH=12” value (E. coli ATCC25922) was 16 µM.

For “QKRPRVRLSA [Peptide 14, reference compound]”, the “TI Beneficial strains (targeting index)” value (E. coli) was 0.397, the “TI Pathogenic strains (targeting index)” value (E. coli) was 0.397 and the “SI E. coli (selectivity index)” value (E. coli) was 2.520. The “TI All (TIall, targeting index)” value (E. coli) was 0.397, the “GM E. coli” value (E. coli) was 101.594 µM and the “GM Beneficial strains” value (Beneficial strains) was 256.000 µM. The “MIC, Control” value (E. coli ATCC25922) was 64 µM, the “MIC, FeCl3” value (E. coli ATCC25922) was greater than 64 µM and the “MIC, MgCl2” value (E. coli ATCC25922) was greater than 64 µM. For the same compound, the “MIC, KCl” value (E. coli ATCC25922) was greater than 64 µM, the “MIC, NaCl” value (E. coli ATCC25922) was greater than 64 µM and the “MIC, PH=2” value (E. coli ATCC25922) was 64 µM. The “MIC, PH=4” value (E. coli ATCC25922) was greater than 64 µM, the “MIC, PH=10” value (E. coli ATCC25922) was greater than 64 µM and the “MIC, PH=12” value (E. coli ATCC25922) was 64 µM.

WIKIWKKIIKKWKK [Peptide 10] was tested, and the “TI Pathogenic strains (targeting index)” value (E. coli) was 0.707, the “SI E. coli (selectivity index)” value (E. coli) was 40.315 and the “TI All (TIall, targeting index)” value (E. coli) was 0.376. The “GM E. coli” value (E. coli) was 6.350 µM, the “GM Beneficial strains” value (Beneficial strains) was 181.019 µM and the “MIC, Control” value (E. coli ATCC25922) was 8 µM. The “MIC, FeCl3” value (E. coli ATCC25922) was 8 µM, the “MIC, MgCl2” value (E. coli ATCC25922) was 64 µM and the “MIC, KCl” value (E. coli ATCC25922) was 8 µM. The “MIC, NaCl” value (E. coli ATCC25922) was 32 µM, the “MIC, PH=2” value (E. coli ATCC25922) was 8 µM and the “MIC, PH=4” value (E. coli ATCC25922) was 8 µM. The “MIC, PH=10” value (E. coli ATCC25922) was 8 µM, the “MIC, PH=12” value (E. coli ATCC25922) was 8 µM and the cells killed (HEK293T cells) was “approximately 99%”. The cells killed (IPEC-J2 cells) was roughly 63%.
